Experimental data reported in the supplement of paper PMC8882468.

How the values were obtained:
Assay in all cases: CTG-3D luminescence at 96 h relative to day-0 seeding control (ratio to day 0); higher = more growth / less cytotoxicity; PDxO 3D drug screen, 96 h, CTG-3D normalised to day-0 seeding control.
HCI-003.E2 = system: HCI-003.E2 (organoid from an ER-positive breast cancer xenograft)
HCI-005.E2 = system: HCI-005.E2 (organoid from a breast cancer xenograft with a HER2-positive history)
HCI-015 = system: HCI-015 (organoid from a triple-negative breast cancer xenograft)
HCI-016 = system: HCI-016 (organoid from a triple-negative breast cancer xenograft)
HCI-019 = system: HCI-019 (organoid from a triple-negative breast cancer xenograft)
HCI-025 = system: HCI-025 (organoid from a breast cancer xenograft)

C/C=C1\NC(=O)[C@H]2CSSCC/C=C/[C@H](CC(=O)N[C@H](C(C)C)C(=O)N2)OC(=O)[C@H](C(C)C)NC1=O [romidepsin]
CTG-3D luminescence at 96 h
Settings | 12.5 pM | 0.00025 µM | 0.005 µM | 0.1 µM | 1 µM | 10 µM | 100 µM | 625 fM
HCI-003.E2 | 1.2 | 0.624 | 0.21 | 0.0473 | 0.0243 | 0.0035 | -0.00659 | 0.719
HCI-005.E2 | 1.07 | 0.734 | 0.155 | 0.0737 | 0.0546 | 0.00415 | -0.00471 | 0.827

CTG-3D luminescence at 96 h
Settings | 12.5 pM | 0.00025 µM | 0.005 µM | 0.1 µM | 1 µM | 10 µM | 100 µM | 625 fM
HCI-015, days in culture: 172 | 1.96 | 1.32 | 1.05 | 0.221 | 0.425 | -0.0523 | -0.0841 | 2.7
HCI-015, days in culture: 191 | 2.51 | 1.79 | 0.707 | 0.312 | 0.256 | 0.0321 | 0.00192 | 2.21
HCI-015, days in culture: 218 | 2.09 | 1.5 | 0.78 | -0.0662 | -0.0737 | -0.275 | -0.342 | 2.07
HCI-016, days in culture: 153 | 2.79 | 0.384 | 0.563 | 0.106 | 0.214 | -0.00553 | -0.0108 | 2.21
HCI-016, days in culture: 172 | 2.29 | 1.31 | 0.385 | 0.107 | 0.127 | 0.00531 | -0.0131 | 1.69
HCI-016, days in culture: 190 | 1.76 | 1.62 | 0.684 | 0.0156 | 0.0109 | -0.0529 | -0.107 | 1.55
HCI-016, days in culture: 199 | 2 | 2.14 | 0.631 | 0.071 | 0.0656 | -0.00558 | -0.0191 | 2.15
HCI-019, days in culture: 110 | 1.6 | 1.12 | 0.598 | 0.376 | 0.0772 | 0.000883 | -0.00824 | 2.26
HCI-019, days in culture: 131 | 2.29 | 2.76 | 1.06 | 0.975 | 0.441 | 0.00479 | -0.00826 | 3.05
HCI-019, days in culture: 152 | 1.95 | 1.43 | 1.55 | 0.685 | 0.489 | 0.00416 | -0.00783 | 1.53
HCI-025, days in culture: 172 | 1.84 | 1.14 | 1.58 | -0.245 | -0.354 | -0.306 | -0.318 | 1.48
HCI-025, days in culture: 209 | 1.99 | 2.87 | 1.48 | 0.312 | 0.313 | 0.034 | -0.0293 | 1.94
HCI-025, days in culture: 218 | 1.5 | 2.01 | 0.886 | -0.155 | -0.189 | -0.329 | -0.306 | 1.84

Cc1nc(-c2cn3c(n2)-c2ccc(-c4cnn(C(C)(C)C(N)=O)c4)cc2OCC3)n(C(C)C)n1 [taselisib]
CTG-3D luminescence at 96 h
Settings | 12.5 pM | 0.00025 µM | 0.005 µM | 0.1 µM | 1 µM | 10 µM | 100 µM | 625 fM
HCI-003.E2 | 2.19 | 2.28 | 1.77 | 0.633 | 0.183 | 0.0364 | 0.0189 | 2.14
HCI-005.E2 | 1.52 | 1.77 | 1.52 | 1.21 | 0.401 | 0.348 | 0.34 | 2.12

CTG-3D luminescence at 96 h
Settings | 12.5 pM | 0.00025 µM | 0.005 µM | 0.1 µM | 1 µM | 10 µM | 100 µM | 625 fM
HCI-015, days in culture: 172 | 2.38 | 1.78 | 2.27 | 1.48 | 1.4 | 0.489 | 0.178 | 3.06
HCI-015, days in culture: 191 | 2.01 | 1.36 | 1.67 | 0.905 | 1.12 | 0.541 | 0.0414 | 1.56
HCI-015, days in culture: 218 | 2.32 | 1.88 | 1.69 | 1.55 | 0.988 | 0.617 | 0.0074 | 2.08
HCI-016, days in culture: 153 | 3 | 1.97 | 2.05 | 1.75 | 1.93 | 1.68 | 1.08 | 2.05
HCI-016, days in culture: 172 | 2.1 | 1.26 | 1.83 | 1.06 | 1.32 | 0.704 | 0.881 | 1.53
HCI-016, days in culture: 190 | 1.8 | 1.3 | 1.49 | 1.25 | 1.07 | 0.971 | 0.254 | 1.2
HCI-016, days in culture: 199 | 1.68 | 1.68 | 1.69 | 1.49 | 1.48 | 0.98 | 0.362 | 1.95
HCI-019, days in culture: 110 | 1.23 | 1.32 | 1.4 | 1.45 | 0.521 | 0.496 | 0.105 | 2.64
HCI-019, days in culture: 131 | 2.82 | 3.38 | 3.03 | 1.62 | 1.23 | 0.571 | 0.133 | 4.04
HCI-019, days in culture: 152 | 3.26 | 2.42 | 2.02 | 1.86 | 1.08 | 0.381 | 0.116 | 2.51
HCI-025, days in culture: 172 | 3.15 | 1.96 | 3.8 | 1.36 | 0.93 | 0.235 | 0.0865 | 1.92
HCI-025, days in culture: 209 | 1.6 | 2.39 | 1.79 | 1.16 | 0.455 | 0.267 | 0.0164 | 1.64
HCI-025, days in culture: 218 | 1.42 | 1.87 | 1.83 | 0.886 | 0.193 | 0.296 | 0.0322 | 1.54

Cc1cc(Nc2ncnc3ccc(NC4=NC(C)(C)CO4)cc23)ccc1Oc1ccn2ncnc2c1 [tucatinib]
CTG-3D luminescence at 96 h
Settings | 12.5 pM | 0.00025 µM | 0.005 µM | 0.1 µM | 1 µM | 10 µM | 100 µM | 625 fM
HCI-003.E2 | 2.15 | 2.41 | 2.02 | 2.29 | 1.93 | 1.31 | 0.018 | 2.12
HCI-005.E2 | 1.56 | 1.61 | 2.08 | 2 | 1.47 | 1.53 | 0.00612 | 2.09

CTG-3D luminescence at 96 h
Settings | 12.5 pM | 0.00025 µM | 0.005 µM | 0.1 µM | 1 µM | 10 µM | 100 µM | 625 fM
HCI-015, days in culture: 172 | 2.53 | 1.9 | 2.05 | 1.54 | 1.91 | 1.53 | 0.0569 | 2.67
HCI-015, days in culture: 191 | 1.69 | 1.49 | 1.75 | 0.921 | 1.58 | 0.759 | 0.0182 | 1.67
HCI-015, days in culture: 218 | 2.15 | 1.83 | 1.97 | 1.85 | 1.5 | 1.64 | 0.0854 | 1.8
HCI-016, days in culture: 153 | 2.94 | 1.99 | 2.31 | 1.49 | 2.19 | 1.96 | 0.013 | 1.94
HCI-016, days in culture: 172 | 2.3 | 2.27 | 1.67 | 1.43 | 1.54 | 0.81 | 0.0152 | 1.3
HCI-016, days in culture: 190 | 1.7 | 1.19 | 1.48 | 1.54 | 1.57 | 1.45 | 0.0124 | 1.1
HCI-016, days in culture: 199 | 1.77 | 1.74 | 1.65 | 1.66 | 1.78 | 1.38 | 0.019 | 1.83
HCI-019, days in culture: 110 | 2.14 | 1.65 | 1.28 | 1.81 | 1.13 | 2.33 | 0.029 | 2.47
HCI-019, days in culture: 131 | 2.25 | 3.22 | 3.6 | 3.65 | 2.9 | 3.09 | 0.0325 | 4.09
HCI-019, days in culture: 152 | 3.48 | 3.89 | 3.04 | 1.67 | 1.99 | 2.26 | 0.0487 | 2
HCI-025, days in culture: 172 | 3 | 1.87 | 3.97 | 2.2 | 2.35 | 1.75 | 0.0232 | 2.16
HCI-025, days in culture: 209 | 1.95 | 2.11 | 2.45 | 1.5 | 1.95 | 1.9 | 0.0118 | 1.06
HCI-025, days in culture: 218 | 1.26 | 1.91 | 1.79 | 1.43 | 1.02 | 1.62 | 0.249 | 1.71

CS(=O)(=O)c1ccc(C(=O)Nc2ccc(Cl)c(-c3ccccn3)c2)c(Cl)c1 [vismodegib]
CTG-3D luminescence at 96 h
Settings | 12.5 pM | 0.00025 µM | 0.005 µM | 0.1 µM | 1 µM | 10 µM | 100 µM | 625 fM
HCI-003.E2 | 1.92 | 2.03 | 1.93 | 2.17 | 2.08 | 1.96 | 0.299 | 1.94
HCI-005.E2 | 1.47 | 1.38 | 1.47 | 1.57 | 1.45 | 1.3 | 0.318 | 1.47

CTG-3D luminescence at 96 h
Settings | 12.5 pM | 0.00025 µM | 0.005 µM | 0.1 µM | 1 µM | 10 µM | 100 µM | 625 fM
HCI-015, days in culture: 172 | 2.23 | 2 | 1.97 | 1.34 | 1.97 | 1.25 | 0.214 | 3.01
HCI-015, days in culture: 191 | 2.65 | 1.16 | 1.77 | 1.1 | 1.7 | 1.15 | 0.207 | 1.54
HCI-015, days in culture: 218 | 1.6 | 1.48 | 1.63 | 1.61 | 1.73 | 1.61 | -0.148 | 2
HCI-016, days in culture: 153 | 3.24 | 1.78 | 2.91 | 1.54 | 2.95 | 1.79 | 0.626 | 2.46
HCI-016, days in culture: 172 | 2.24 | 1.87 | 1.95 | 1.87 | 2.13 | 1.47 | 0.75 | 2.02
HCI-016, days in culture: 190 | 2.13 | 1.28 | 1.74 | 1.58 | 1.72 | 1.66 | 0.376 | 1.7
HCI-016, days in culture: 199 | 2.04 | 1.97 | 2.17 | 2.07 | 2.19 | 2.01 | 0.655 | 2.15
HCI-019, days in culture: 110 | 1.59 | 1.68 | 1.23 | 2.46 | 1.99 | 2.18 | 1.03 | 2.06
HCI-019, days in culture: 131 | 2.17 | 2.54 | 3.59 | 3.93 | 2.82 | 2.53 | 1.56 | 3.4
HCI-019, days in culture: 152 | 3.1 | 2.87 | 2.59 | 1.83 | 2.08 | 1.82 | 0.857 | 1.86
HCI-025, days in culture: 172 | 3.09 | 1.78 | 3.88 | 2.18 | 2.97 | 1.37 | 0.368 | 2.37
HCI-025, days in culture: 209 | 1.85 | 2.63 | 2.69 | 1.56 | 2.47 | 1.4 | 0.0933 | 1.57
HCI-025, days in culture: 218 | 1.48 | 1.67 | 2.01 | 1.69 | 1.56 | 1.88 | -0.104 | 1.87
